Measured values as given in patent publication US8188102B2, “Amide derivative for inhibiting the growth of cancer cells” (Hanmi Holdings Co., Ltd., priority 2007, dated 2012).

Columns and labels:
[1] = tested on: A431 skin cancer cell line; assay: Cancer cell growth inhibition, A431 (SRB); settings: Homo sapiens, A-431, 72 h, read-out: ID50 (nM) A431
[2] = tested on: SK-Br3 breast cancer cell line; assay: Cancer cell growth inhibition, SK-Br3 (SRB); settings: Homo sapiens, SK-BR-3, 72 h, read-out: ID50 (nM) SK-Br3

Row | Compound | IC50 [1] [nM] | IC50 [2] [nM]
1 | C=CC(=O)N1CCC(Oc2cc3c(Nc4ccc(OCc5cccc(F)c5)c(Cl)c4)ncnc3cc2OC)CC1 [Example 54, 1-(4-(4-(3-chloro-4-(3-fluorobenzyloxy)phenylamino)-7-methoxyquinazolin-6-yloxy)piperidin-1-yl)pro-2-pen-1-one] | 10 | 2
2 | C=C(CO)C(=O)N1CCC(Oc2cc3c(Nc4ccc(Cl)c(Cl)c4F)ncnc3cc2OC)CC1 [Example 114, 1-(4-(4-(3,4-dichloro-2-fluorophenylamino)-7-methoxyquinazolin-6-yloxy)piperidin-1-yl)-2-(hydroxymethyl)prop-2-en-1-one] | 44 | 274
3 | C=C(CN1CCCCC1)C(=O)N1CC(Oc2cc3c(Nc4ccc(F)c(Cl)c4F)ncnc3cc2OC)C1 [Example 108, 1-(3-(4-(3-chloro-2,4-difluorophenylamino)-7-methoxyquinazolin-6-yloxy)azetidin-1-yl)-2-(piperidin-1-ylmethyl)prop-2-en-1-one] | 9.1 | 6
4 | COc1cc2ncnc(Nc3ccc(F)c(Cl)c3F)c2cc1OC1CCN(C(=O)/C=C\CN(C)C)CC1 [Example 113, (Z)-1-(4-(4-(3-chloro-2,4-difluorophenylamino)-7-methoxyquinazolin-6-yloxy)piperidin-1-yl)-4-(dimethylamino)but-2-en-1-one] | 6 | 17
5 | C=CC(=O)N1CC[C@H](Oc2cc3c(Nc4ccc(F)c(Cl)c4F)ncnc3cc2OC)C[C@H]1C(=O)NCCN1CCOCC1 [Example 132, (2S,4S)-1-acryloyl-4-(4-(3-chloro-2,4-difluorophenylamino)-7-methoxyquinazolin-6-yloxy)-N-(2-morpholinoethyl)piperidin-2-carboxamide] | 8.3 | 0.5
6 | CNC(=O)/C=C/C(=O)N1CC(Oc2cc3c(Nc4ccc(F)c(Cl)c4F)ncnc3cc2OC)C1 [Example 28, (E)-4-(3-(4-(3-chloro-2,4-difluorophenylamino)-7-methoxyquinazolin-6-yloxy)azetidin-1-yl)-N-methyl-4-oxobut-2-ene amide] | 41 | 262
7 | C=C(CN(C)C)C(=O)N1CCC(Oc2cc3c(Nc4ccc(Cl)c(Cl)c4F)ncnc3cc2OC)CC1 [Example 111, 1-(4-(4-(3,4-dichloro-2-fluorophenylamino)-7-methoxyquinazolin-6-yloxy)piperidin-1-yl)-2-((dimethylamino)methyl)prop-2-en-1-one] | 4 | 6
8 | CC#CC(=O)N1CCC(Oc2cc3c(Nc4ccc(F)c(Cl)c4F)ncnc3cc2OC)CC1 [Example 80, 1-(4-(4-(3-chloro-2,4-difluorophenylamino)-7-methoxyquinazolin-6-yloxy)piperidin-1-yl)but-2-yn-1-one] | 190 | 268
9 | C=CC(=O)N1CCC(Oc2cc3c(Nc4ccc5c(c4)CCC5)ncnc3cc2OC)CC1 [Example 49, 1-(4-(4-(2,3-dihydro-1H-inden-5-ylamino)-7-methoxyquinazolin-6-yloxy)piperidin-1-yl)pro-2-pen-1-one] | 29 | 45
10 | COc1cc2ncnc(Nc3ccc(F)c(Cl)c3F)c2cc1OCCNC(=O)/C=C/CN(C)C [Example 103, (E)-N-(2-(4-(3-chloro-2,4-difluorophenylamino)-7-methoxyquinazolin-6-yloxy)ethyl)-4-(dimethylamino)but-2-enamide] | 18 | 7
11 | COc1cc2ncnc(Nc3ccc(Cl)c(Cl)c3F)c2cc1OC1CCN(C(=O)/C=C/Cl)CC1 [Example 90, (E)-3-chloro-1-(4-(4-(3,4-dichloro-2-fluorophenylamino)-7-methoxyquinazolin-6-yloxy)piperidin-1-yl)prop-2-en-1-one] | 39 | 13
12 | C=CC(=O)N1CCC(Oc2cc3c(Nc4cccc(C#N)c4)ncnc3cc2OC)CC1 [Example 56, 3-(6-(1-acryloylpiperidin-4-yloxy)-7-methoxyquinazolin-4-ylamino)benzonitrile] | 3.7 | 0.7
13 | C=CC(=O)N1CCC(Oc2cc3c(Nc4ccc(Cl)c(O)c4)ncnc3cc2OC)CC1 [Example 51, 1-(4-(4-(4-chloro-3-hydroxyphenylamino)-7-methoxyquinazolin-6-yloxy)piperidin-1-yl)pro-2-pen-1-one] | 105 | 19
14 | COc1cc2ncnc(Nc3ccc(F)c(Cl)c3F)c2cc1OC1CCN(C(=O)C=C(C)C)CC1 [Example 81, 1-(4-(4-(3-chloro-2,4-difluorophenylamino)-7-methoxyquinazolin-6-yloxy)piperidin-1-yl)-3-methylbut-2-en-1-one] | 38 | 141
15 | CCN(CC)C/C=C/C(=O)N1CC[C@H](Oc2cc3c(Nc4ccc(F)c(Cl)c4F)ncnc3cc2OC)C1 [Example 93, (E)-1-((3S)-3-(4-(3-chloro-2,4-difluorophenylamino)-7-methoxyquinazolin-6-yloxy)pyrrolidin-1-yl)-4-(diethylamino)but-2-en-1-one] | 28 | 40
16 | C=CC(=O)N1CC[C@H](Oc2cc3c(Nc4ccc5c(cnn5Cc5cccc(F)c5)c4)ncnc3cc2OC)C1 [Example 12, 1-((3S)-3-(4-(1-(3-fluorobenzyl)-1H-indazol-5-ylamino)-7-methoxyquinazolin-6-yloxy)pyrrolidin-1-yl)pro-2-pen-1-one] | 19 | 3
17 | C=CC(=O)Nc1cccc(Nc2ncnc3cc(OC)c(OC4CCN(C(=O)C=C)CC4)cc23)c1 [Example 75, N-(3-(6-(1-acryloylpiperidin-4-yloxy)-7-methoxyquinazolin-4-ylamino)phenyl)acrylamide] | 400 | 50
18 | C=CC(=O)N1CC[C@H](Oc2cc3c(Nc4ccc(F)c(Cl)c4F)ncnc3cc2OC)C[C@H]1C(=O)NO [Example 125, (2S,4S)-1-acryloyl-4-(4-(3-chloro-2,4-difluorophenylamino)-7-methoxyquinazolin-6-yloxy)-N-hydroxypiperidin-2-carboxamide] | 10 | 1
19 | C=C(NC(C)=O)C(=O)N1CCC(Oc2cc3c(Nc4ccc(Cl)c(Cl)c4F)ncnc3cc2OC)CC1 [Example 91, N-(3-(4-(4-(3,4-dichloro-2-fluorophenylamino)-7-methoxyquinazolin-6-yloxy)piperidin-1-yl)-3-oxoprop-1-en-2-yl)acetamide] | 50 | 194
20 | C=CC(=O)N1CC[C@H](Oc2cc3c(Nc4ccc(F)c(Cl)c4F)ncnc3cc2OC)C[C@H]1C(=O)NC [Example 121, (2S,4S)-1-acryloyl-4-(4-(3-chloro-2,4-difluorophenylamino)-7-methoxyquinazolin-6-yloxy)-N-methylpiperidin-2-carboxamide] | 2.2 | 2.5
21 | C=CC(=O)N1CCC(Oc2cc3c(Nc4ccc(F)c(Cl)c4F)ncnc3cc2OCCCN2CCOCC2)CC1 [Example 118, 1-(4-(4-(3-chloro-2,4-difluorophenylamino)-7-(3-morpholinopropoxy)quinazolin-6-yloxy)piperidin-1-yl)prop-2-en-1-one] | 4 | 2
22 | C=CC(=O)N1CCC(Oc2cc3c(Nc4cccc([N+](=O)[O-])c4)ncnc3cc2OC)CC1 [Example 74, 1-(4-(7-methoxy-4-(3-nitrophenylamino)quinazolin-6-yloxy)piperidin-1-yl)pro-2-pen-1-one] | 11 | 1
23 | C=CC(=O)N1CCC(Oc2cc3c(Nc4ccc(O)c(F)c4)ncnc3cc2OC)CC1 [Example 79, 1-(4-(4-(3-fluoro-4-hydroxyphenylamino)-7-methoxyquinazolin-6-yloxy)piperidin-1-yl)prop-2-en-1-one] | 129 | 37
24 | C=CC(=O)N1CC[C@H](Oc2cc3c(Nc4cccc(Cl)c4F)ncnc3cc2OC)C1 [Example 6, 1-((3S)-3-(4-(3-chloro-2-fluorophenylamino)-7-methoxyquinazolin-6-yloxy)pyrrolidin-1-yl)pro-2-pen-1-one] | 531 | 1670
25 | CC#CC(=O)N1CC[C@H](Oc2cc3c(Nc4ccc(F)c(Cl)c4F)ncnc3cc2OC)C1 [Example 3, 1-((3S)-3-(4-(3-chloro-2,4-difluorophenylamino)-7-methoxyquinazolin-6-yloxy)pyrrolidin-1-yl)but-2-yn-1-one] | 37 | 1300
26 | C=CC(=O)N1CC[C@@H](Oc2cc3c(Nc4ccc(F)c(Cl)c4F)ncnc3cc2OC)C[C@@H]1C(=O)NCCS(C)(=O)=O [Example 138, (2R,4R)-1-acryloyl-4-(4-(3-chloro-2,4-difluorophenylamino)-7-methoxyquinazolin-6-yloxy)-N-(2-(methylsulfonyl)ethyl)piperidin-2-carboxamide] | 2.4 | 1.3
27 | CNC(=O)/C=C/C(=O)N1CCC(Oc2cc3c(Nc4ccc(F)c(Cl)c4F)ncnc3cc2OC)CC1 [Example 82, (E)-4-(4-(4-(3-chloro-2,4-difluorophenylamino)-7-methoxyquinazolin-6-yloxy)piperidin-1-yl)-N-methyl-4-oxobut-2-enamide] | 48 | 134
28 | COc1cc2ncnc(Nc3ccc(F)c(Cl)c3F)c2cc1OC1CN(C(=O)/C=C/CN(C)C)C1 [Example 101, (E)-1-(3-(4-(3-chloro-2,4-difluorophenylamino)-7-methoxyquinazolin-6-yloxy)azetidin-1-yl)-4-(dimethylamino)but-2-en-1-one] | 36 | 11
29 | C=CC(=O)N1CC[C@@H](Oc2cc3c(Nc4ccc(F)c(Cl)c4F)ncnc3cc2OC)C[C@@H]1C(=O)NO [Example 137, (2R,4R)-1-acryloyl-4-(4-(3-chloro-2,4-difluorophenylamino)-7-methoxyquinazolin-6-yloxy)-N-hydroxypiperidin-2-carboxamide] | 1.7 | 1.3
30 | C=C(CN1CCOCC1)C(=O)N1CCC(Oc2cc3c(Nc4ccc(F)c(Cl)c4F)ncnc3cc2OC)CC1 [Example 110, 1-(4-(4-(3-chloro-2,4-difluorophenylamino)-7-methoxyquinazolin-6-yloxy)piperidin-1-yl)-2-(morpholinomethyl)prop-2-en-1-one] | 10 | 30
